# Results published in patent US20040132970A1, “Dermaseptin-derived peptides and their use in delivery systems” (priority 2002, published 2004).
# “Also recorded” adds a separate entry of the source. Ends that are not written are not given here.
# What was measured:
# HeLa cells [1] = test: Penetration of Lissamine Rhodamine-labeled synthetic peptides into intact cultured cells, fluorescence microscopy; type: cell-based; settings: for co-penetration of free fluorophore LR into intact HeLa cells: mixture of unlabeled S413 and free LR, versus LR alone; for cell penetration and intracellular localization in intact HeLa cells (FIG. 1): 37° C., 5 μM; for cell penetration and intracellular localization in intact HeLa cells (FIG. 1) / cell penetration and nuclear accumulation in intact HeLa cells (FIG. 3): 30 minutes; for cell penetration and nuclear accumulation in intact HeLa cells (FIG. 3): 10 μM Rev at 37° C., 2 μM of RR-S413
# Method: HeLa cells (3×10^4 per well) were cultured on eight-well Lab-Teck cover slips (Nunc Inc.) or on 10-mm cover slips to sub confluent density. Following the removal of the culture medium, the cells were washed three times with PBS and then exposed to different concentrations of the Lissamine Rhodamine-labeled peptides at 37° C. or at 4° C. At the end of the incubation period the cells were washed three times in PBS and fixed in 4% (v/v) formaldehyde dissolved in PBS. Fixed cells were examined by fluorescence microscopy (Zeiss Germany, a 40× objective; Apoplan) or by confocal microscopy using an MRC 1024 confocal imaging system (Bio-Rad). The microscope (Axiovert 135M; Zeiss Germany, a 63× objective; Apoplan; NA 1.4) was equipped with an argon ion laser for Rhodamine excitation at 514 nm (emission 580).
# Following fixation, the various samples were examined by fluorescence microscopy.
# Synthetic peptides bearing Tat and Rev ARM sequences were synthesized and fluorescently labeled as described. […]
# cultured cells = test: Effect of the peptides on cell viability (Trypan Blue); type: cell-based; settings: for toxicity to cells, Trypan Blue test: at the concentrations used, 37° C., 30 minutes; for toxicity to the cells (cell viability): at concentrations up to about 15 μM
# Method: Following incubation at 37° C. for 30 minutes 100 ml, Trypan Blue solution was added (0.4% in HBSS buffer; Sigma) and HBSS buffer (5:3) and viable cells counted after 5 minutes of continuous stirring. Cell death was not greater than 20%.
# HeLa cells [2] = test: Microinjection of the peptides into HeLa cells, nuclear import; type: cell-based; settings: 1 μM, 2 hours after incubation at 37° C.
# Method: FIGS. 4a-d: Nuclear import of S413 and RR-S413 in microinjected cells. HeLa cells were microinjected with the fluorescently labeled peptides S413 and RR-S413 (1 μM). The injection mixture also included fluorescently labeled BSA as an injection control (data not shown). Photos were taken 2 hours after incubation at 37° C.
# HeLa cells were microinjected with either S413 or with RR-S413 using the CompInject AIS2 automated microinjection system (Cell Biology Trading, Hamburg, Germany) as described previously [Neumann, M. et al. (2001) J. Cell Sci. 114, 1717-29] using a microinjection method developed by Graessmann et al., as described [Graessmann, M. and Graessmann, A. (1983) Methods Enzymol. 101, 482-492].
# permeabilized HeLa cells = test: Nuclear uptake in digitonin-permeabilized cells, fluorescence microscopy; type: cell-based; set-up: key to Nuclear Import of PV-S413 / Nuclear uptake: +: Most of the nuclei in the microscopic fields are highly fluorescent; −: No fluorescence in the nuclei; +/−: Most of the nuclei are very weakly fluorescent
# Method: FIGS. 2a-d: Nuclear import of PV-S413 in permeabilized HeLa cells: fluorescence microscopy observations. All experimental conditions were as described in Experimental Procedures and in legend to Table 3. Digitonin permeabilized HeLa cells were incubated in the presence of reticulocyte extract at 30° C. for 1 hour with 1 μM of the following:
# HeLa cells were cultivated on 10 mm cover slips to sub confluent density and then permeabilized with digitonin as described previously [Friedler, A. et al. (1998) Biochemistry 37, 5616-5622]. The cells were incubated with the peptides and nuclear import was followed by fluorescence microscopy as described [Friedler, A. et al. (1998) id ibid.].
# Experimental conditions of nuclear import in digitonin-permeabilized cells (complete system) were as described. PV-S413 was used at 1 mM and all incubations were performed at 37° C. in the presence of reticulocyte lysate, unless otherwise indicated. Additions: GTPγS (20 mM) and the following unlabeled peptides SV40 T-Ag NLS, S413 and PV-S413 at a ratio of 1:100 (mol/mol).
# Unlabeled peptides RR-S413, SV40 T-Ag-NLS, Rev and Tat ARM were added at a peptide ratio of 1:100 (mole/mole).
# erythrocytes = settings: cited from earlier work
compound,measurement,setting,value
"CCN(CC)c1ccc2c(-c3ccc(S(=O)(=O)O)cc3S(=O)(=O)[O-])c3ccc(=[N+](CC)CC)cc-3oc2c1 [L-Rhodamine, Lissamine Rhodamine, reference compound]",co-penetration of free fluorophore LR into intact HeLa cells,HeLa cells [1],did not occur
ALWKTLLKKVLKA-NH2 [Peptide S413],"toxicity to cells, Trypan Blue test",cultured cells,non-toxic
same,localization following microinjection into intact HeLa cells (FIG. 4),HeLa cells [2],retained in the cytoplasm; also recorded: remained in the cytoplasm
same,penetration into nuclei of digitonin permeabilized HeLa cells (FIG. 2),"permeabilized HeLa cells; 1 μM, reticulocyte extract, 30° C., 1 hour",did not penetrate
same,time of incubation within which penetration into cultured HeLa cells occurs,"HeLa cells [1]; 1 μM of the peptide, either at 37° C. or at 4° C.",≤ 5 min
same,cell penetration and intracellular localization in intact HeLa cells (FIG. 1),HeLa cells [1],accumulated within the cells' cytoplasm and not in the cells' nuclei
same,nuclear localization after long incubation,HeLa cells [1]; 24 hours after incubation at 37° C.,"very little, if any, nuclear localization"
same,penetration into intact cells in ATP depleted cells,HeLa cells [1]; ATP depleted cells,occurred
same,co-penetration of free fluorophore LR into intact HeLa cells,HeLa cells [1],a few intracellular fluorescent dots
ALWKTLLKKVLKAPKKKRKV-NH2 [Peptide S413-PV],"toxicity to cells, Trypan Blue test",cultured cells,not toxic
"ALWMTLLKKVLKAAAKAALNAVLVGANA-COOH (ALWMTLLKKVLKAAAKAALNAVLVGANA-OH) [Peptide S4, reference compound]",toxicity to erythrocytes,erythrocytes,highly toxic
"GRKKRRQRRRPPQC-NH2 [Tat-ARM, reference compound]",toxicity to the cells (cell viability),cultured cells,not toxic
PKKKRKVALWKTLLKKVLKA-NH2 [PV-S413],"toxicity to cells, Trypan Blue test",cultured cells,not toxic
same,ATP dependence of nuclear import in permeabilized HeLa cells,permeabilized HeLa cells,ATP-dependent
same,nuclear import in permeabilized HeLa cells at 4° C.,permeabilized HeLa cells; 4° C.,did not occur
same,Nuclear Import of PV-S413,"permeabilized HeLa cells; (i) Complete System: 1 mM peptide, 37° C., reticulocyte lysate",+
same,Nuclear Import of PV-S413,permeabilized HeLa cells; (ii) Hexokinase (ATP depleted system),−
same,Nuclear Import of PV-S413,"permeabilized HeLa cells; (iii) As (i), in the absence of reticulocyte extract",−
same,Nuclear Import of PV-S413,permeabilized HeLa cells; (iv) As (i) at 4° C.,−
same,Nuclear Import of PV-S413,permeabilized HeLa cells; (v) As (i) + GTPγS (20 mM),−
same,Nuclear Import of PV-S413,"permeabilized HeLa cells; (vi) As (i) + unlabeled SV40-NLS, 1:100 (mol/mol)",+/−
same,Nuclear Import of PV-S413,"permeabilized HeLa cells; (vii) As (i) + unlabeled S413, 1:100 (mol/mol)",+
same,Nuclear Import of PV-S413,"permeabilized HeLa cells; (viii) As (i) + unlabeled PV-S413, 1:100 (mol/mol)",+/−
same,"effect of GTPγS, WGA and excess of free unlabeled SV40 T-Ag-NLS peptide on nuclear import",permeabilized HeLa cells; permeabilized HeLa cells,inhibited
same,intracellular localization in intact HeLa cells at 4° C.,HeLa cells [1]; 4° C.,retained in the cytoplasm
same,cell penetration and intracellular localization in intact HeLa cells (FIG. 1),HeLa cells [1],cell penetration and accumulation within the cells' nuclei
RQARRNRRRALWKTLLKKVLKA-NH2 [RR-S413],toxicity to the cells (cell viability),cultured cells,not toxic
same,localization following microinjection into intact HeLa cells (FIG. 4),HeLa cells [2],accumulated within the intranuclear space; also recorded: accumulated in the nuclei
same,Nuclear uptake,permeabilized HeLa cells; ATP depleted cells,−
same,Nuclear uptake,permeabilized HeLa cells; In the absence of cytosolic factors,+
same,Nuclear uptake,permeabilized HeLa cells; In the presence of cytosolic factors,+/−
same,Nuclear uptake,"permeabilized HeLa cells; In the presence of unlabeled RR-S413, 1:100 (mole/mole)",+/−
same,Nuclear uptake,"permeabilized HeLa cells; In the presence of unlabeled Rev-ARM, 1:100 (mole/mole)",−
same,Nuclear uptake,"permeabilized HeLa cells; In the presence of unlabeled SV40 T-Ag NLS, 1:100 (mole/mole)",+
same,Nuclear uptake,"permeabilized HeLa cells; In the presence of unlabeled Tat-ARM, 1:100 (mole/mole)",+/−
same,Nuclear uptake,permeabilized HeLa cells; Incubation in 4° C.,−
same,nuclear import in digitonin permeabilized HeLa cells,permeabilized HeLa cells; no addition of cytosolic extract required,Nuclear import was also observed
same,cell penetration and nuclear accumulation in intact HeLa cells (FIG. 3),HeLa cells [1],readily penetrated into intact HeLa cells and accumulated—within a short period of time—within the nuclei of these cells
"RQARRNRRRC-NH2 [Rev-ARM, reference compound]",toxicity to the cells (cell viability),cultured cells,not toxic
same,cell penetration and nuclear accumulation in intact HeLa cells (FIG. 3),HeLa cells [1],cell permeable
VKRKKKPALWKTLLKKVLKA-NH2 [rPV-S413],nuclei accumulation in permeabilized HeLa cells,permeabilized HeLa cells; both in the presence and in the absence of the cytosolic extract,either did not accumulate or showed poor nuclei accumulation
same,cell penetration and intracellular localization in intact HeLa cells (FIG. 1),HeLa cells [1],"very little, if any, accumulation within the cells' nuclei/nucleoli"
